Experimental data published in patent US7125990B2, “Imidazolyl derivatives as corticotropin releasing factor inhibitors” (Bristol-Myers Squibb COmpany, priority 2001, dated 2006).

Target: T1, CRF1 receptors (Homo sapiens, UniProt P34998)
T1 construct: endogenous in cells; host or cells: IMR-32 cells, transformed with 2.5 µM 5'-bromo-2'-deoxyuridine for 10 days; membrane preparation
T1 sequence (P34998 24-415): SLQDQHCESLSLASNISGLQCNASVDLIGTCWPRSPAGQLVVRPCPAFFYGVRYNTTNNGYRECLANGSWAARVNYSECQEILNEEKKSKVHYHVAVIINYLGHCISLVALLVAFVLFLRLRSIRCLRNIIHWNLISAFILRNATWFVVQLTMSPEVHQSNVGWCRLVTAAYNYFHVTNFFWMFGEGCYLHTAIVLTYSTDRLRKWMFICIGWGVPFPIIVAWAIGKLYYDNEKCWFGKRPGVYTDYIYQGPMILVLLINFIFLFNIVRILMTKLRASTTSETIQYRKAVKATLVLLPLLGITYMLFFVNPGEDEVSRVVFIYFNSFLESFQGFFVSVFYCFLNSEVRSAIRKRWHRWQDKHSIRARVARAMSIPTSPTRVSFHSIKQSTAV
Assay: CRF1 receptor radioligand binding assay ([125I]-oCRF competition, IMR-32 cell membranes)
Conditions: IMR-32 cell membranes, [125I]-oCRF 100 pM; read-out: Ki (CRF-1R)
Outline: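 Buffer: Tris pH 7.2 with MgCl2, BSA, Triton X-100, aprotinin, leupeptin; reaction stopped with ice-cold wash and filtered. Nonspecific binding set with 10 μM oCRF.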

Q: Cc1cc(C)c(-n2c3ncccc3n3c(CN(CC4CCC4)CC(F)(F)F)c(C(F)(F)F)nc23)c(C)c1 [Example 216, Cyclobutylmethyl-(2,2,2-trifluoro-ethyl)-[2-trifluoromethyl-8-(2,4,6-trimethyl-phenyl)-8H-1,3a,7,8-tetraaza-cyclopenta[α]inden-3-ylmethyl]-amine] was tested. Which Ki did it give?
A: < 100 nM

Q: With Cc1cc(C)c(-n2c3ccccc3n3c(CN(C)Cc4ccccc4)c(C(F)(F)F)nc23)c(C)c1 [Example 167, Benzyl-methyl-[2-trifluoromethyl-8-(2,4,6-trimethyl-phenyl)-8H-1,3a,8-triaza-cyclopenta[α]inden-3-ylmethyl]-amine] as the compound, how does the Ki read?
A: < 1000 nM

Q: For CCCN(Cc1cccc(F)c1)Cc1c(C(F)(F)F)nc2n(-c3c(C)cc(C)cc3C)c(Cl)cn12 [Example 340, [6-Chloro-2-trifluoromethyl-7-(2,4,6-trimethyl-phenyl)-7H-imidazo[1,2-a]imidazol-3-ylmethyl]-(3-fluoro-benzyl)-propyl-amine], which Ki is on record?
A: < 1000 nM

Q: Which Ki does the source give for Cc1cc(C)c(-n2c(Cl)cn3c(CN(CCC(F)(F)F)Cc4ccccc4)c(C(F)(F)F)nc23)c(C)c1 [Example 327, Benzyl-[6-chloro-2-trifluoromethyl-7-(2,4,6-trimethyl-phenyl)-7H-imidazo[1,2-a]imidazol-3-ylmethyl]-(3,3,3-trifluoro-propyl)-amine] here?
A: < 100 nM

Q: Which Ki does the source give for Cc1cc(C)c(N2CCCn3c2nc(C(F)(F)F)c3CN(Cc2ccccc2)CC(F)(F)F)c(C)c1 [Example 85, Benzyl-(2,2,2-trifluoro-ethyl)-[2-trifluoromethyl-8-(2,4,6-trimethyl-phenyl)-5,6,7,8-tetrahydro-imidazo[1,2-a]pyrimidin-3-ylmethyl]-amine] here?
A: < 10000 nM

Q: With Cc1cc(C)c(N2CCCn3c2nc(C(F)(F)F)c3CN(CCC(F)(F)F)Cc2ccccc2)c(Cl)c1 [Example 125, Benzyl-[8-(2-chloro-4,6-dimethyl-phenyl)-2-trifluoromethyl-5,6,7,8-tetrahydro-imidazo[1,2-a]pyrimidin-3-ylmethyl]-(3,3,3-trifluoro-propyl)-amine] as the compound, how does the Ki read?
A: < 1000 nM

Q: Which Ki does the source give for CCCN(CCC(F)(F)F)Cc1c(C(F)(F)F)nc2n(-c3ccc(C(C)C)cc3Br)c3ccccc3n12 [Example 197, [8-(2-Bromo-4-isopropyl-phenyl)-2-trifluoromethyl-8H-1,3a,8-triaza-cyclopenta[α]inden-3-ylmethyl]-propyl-(3,3,3-trifluoro-propyl)-amine] here?
A: < 1000 nM

Q: CCCN(CCC(F)(F)F)C(=O)c1c(CC)nc2n1CCN2c1c(C)cc(C)cc1C [Example 12, 2-Ethyl-7-(2,4,6-trimethyl-phenyl)-6,7-dihydro-5H-imidazo[1,2-a]imidazole-3-carboxylic acid propyl-(3,3,3-trifluoropropyl)-amide] was tested. Which Ki did it give?
A: < 1000 nM

Q: How did the Ki turn out when Cc1cc(C)c(N2CCCn3c2nc(C(F)(F)F)c3CN(CC2CCC2)CC(F)(F)F)c(Cl)c1 [Example 112, [8-(2-Chloro-4,6-dimethyl-phenyl)-2-trifluoromethyl-5,6,7,8-tetrahydro-imidazo[1,2-a]pyrimidin-3-ylmethyl]-cyclobutylmethyl-(2,2,2-trifluoro-ethyl)-amine] was run?
A: < 100 nM

Q: Which Ki does the source give for CCCN(CCC(F)(F)F)C(=O)c1c(CC)nc2n1CCN2c1c(C)cc(C)cc1Br [Example 45, 7-(2-Bromo-4,6-dimethyl-phenyl)-2-ethyl-6,7-dihydro-5H-imidazo[1,2-a]imidazole-3-carboxylic acid propyl-(3,3,3-trifluoro-propyl)-amide] here?
A: < 1000 nM

Q: Which Ki does the source give for CCCN(CCC(F)(F)F)Cc1c(C(F)(F)F)nc2n(-c3c(C)cc(C)cc3C)c3ccccc3n12 [Example 157, Propyl-[2-trifluoromethyl-8-(2,4,6-trimethyl-phenyl)-8H-1,3a,8-triaza-cyclopenta[α]inden-3-ylmethyl]-(3,3,3-trifluoro-propyl)-amine] here?
A: < 100 nM

Q: With CCCN(Cc1ccc(Cl)cc1)C(=O)c1c(CC)nc2n1CCN2c1c(C)cc(C)cc1C [Example 21, 2-Ethyl-7-(2,4,6-trimethyl-phenyl)-6,7-dihydro-5H-imidazo[1,2-a]imidazole-3-carboxylic acid (4-chloro-benzyl)-propyl-amide] as the compound, how does the Ki read?
A: < 10000 nM

Q: “(2,2,3,3,3-Pentafluoro-propyl)-(2,2,2-trifluoro-ethyl)-[2-trifluoromethyl-8-(2,4,6-trimethyl-phenyl)-8H-1,3a,8-triaza-cyclopenta[α]inden-3-ylmethyl]-amine [Example 162]” was tested. Which Ki did it give?
A: < 1000 nM

Q: With Cc1cc(C)c(N2CCCn3c2nc(C(F)(F)F)c3CN2CCCC2Cc2ccccc2)c(C)c1 (stereo not shown) [Example 347, 3-(2-Benzyl-pyrrolidin-1-ylmethyl)-2-trifluoromethyl-8-(2,4,6-trimethyl-phenyl)-5,6,7,8-tetrahydro-imidazo[1,2-a]pyrimidine] as the compound, how does the Ki read?
A: < 10 nM

Q: Which Ki does the source give for CCCN(CC1CC1)C(=O)c1c(C)nc2n(-c3ccc(Cl)cc3Cl)c3ccccc3n12 [Example 143, 8-(2,4-Dichloro-phenyl)-2-methyl-8H-1,3a,8-triaza-cyclopenta[a]indene-3-carboxylic acid cyclopropylmethyl-propyl-amide] here?
A: < 10000 nM

Q: How did the Ki turn out when CCN(Cc1c(C(F)(F)F)nc2n(-c3c(C)cc(C)cc3C)c(Cl)cn12)CC1CCC1 [Example 341, [6-Chloro-2-trifluoromethyl-7-(2,4,6-trimethyl-phenyl)-7H-imidazo[1,2-a]imidazol-3-ylmethyl]-cyclobutylmethyl-ethyl-amine] was run?
A: < 10 nM

Q: How did the Ki turn out when Cc1cc(C)c(N2CCCn3c2nc(C(F)(F)F)c3CN(CC2CC2)CC(F)(F)C(F)(F)F)c(Cl)c1 [Example 115, [8-(2-Chloro-4,6-dimethyl-phenyl)-2-trifluoromethyl-5,6,7,8-tetrahydro-imidazo[1,2-a]pyrimidin-3-ylmethyl]-cyclopropylmethyl-(2,2,3,3,3-pentafluoro-propyl)-amine] was run?
A: < 100 nM

Q: C=CCN(CC=C)Cc1c(C(F)(F)F)nc2n1CCCN2c1c(C)cc(C)cc1Cl [Example 103, Diallyl-[8-(2-chloro-4,6-dimethyl-phenyl)-2-trifluoromethyl-5,6,7,8-tetrahydro-imidazo[1,2-a]pyrimidin-3-ylmethyl]-amine] was tested. Which Ki did it give?
A: < 100 nM

Q: With CCc1nc2n(c1C(=O)N(CC1CC1)CC(F)(F)F)CCN2c1ccc(C(C)C)cc1Br [Example 34, 7-(2-Bromo-4-isopropyl-phenyl)-2-ethyl-6,7-dihydro-5H-imidazo[1,2-a]imidazole-3-carboxylic acid cyclopropylmethyl-(2,2,2-trifluoro-ethyl)-amide] as the compound, how does the Ki read?
A: < 1000 nM

Q: CCc1nc2n(c1C(=O)N(CCC(F)(F)F)CC1CC1)CCN2c1c(C)cc(C)cc1C [Example 9, 2-Ethyl-7-(2,4,6-trimethyl-phenyl)-6,7-dihydro-5H-imidazo[1,2-a]imidazole-3-carboxylic acid cyclopropylmethyl-(3,3,3-trifluoro-propyl)-amide] was tested. Which Ki did it give?
A: < 100 nM

Q: How did the Ki turn out when Cc1cc(C)c(N2CCCn3c2nc(C(F)(F)F)c3CN2CCC(C)CC2)c(Cl)c1 [Example 102, 8-(2-Chloro-4,6-dimethyl-phenyl)-3-(4-methyl-piperidin-1-ylmethyl)-2-trifluoromethyl-5,6,7,8-tetrahydro-imidazo[1,2-a]pyrimidine] was run?
A: < 1000 nM

Q: “Phenethyl-[2-trifluoromethyl-8-(2,4,6-trimethyl-phenyl)-8H-1,3a,8-triaza-cyclopenta[α]inden-3-ylmethyl]-(3,3,3-trifluoro-propyl)-amine [Example 168]” was tested. Which Ki did it give?
A: < 1000 nM
